The numbers were not newly measured in patent US20090175941A1, “Tablet-form slow-release preparation for vertigo” (priority 2005, published 2009), which cites them from elsewhere.

Structures are written as SMILES.

For `C(=C\c1ccccc1)/CN1CCN(C(c2ccccc2)c2ccccc2)CC1` [cinnarizine, 1-benzhydryl-4-trans-cinnamylpiperazine], the solubility in water entry is “approximately 2 mg/100 ml”.
